Source: ChEMBL document CHEMBL1201862, “PubChem BioAssay data set” (2004)
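Assay format: 96-well plates, 48-hour exposure. At the GI50, growth is halved.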 Calls of active or inactive are those of the source. Cut-off read from the data, not from the text of the source: active = GI50 up to about 1.1 µM and inactive = higher.

Tests used:
Assay in all cases: inhibition of tumour cell growth, NCI panel, 48 h
DLD-1 = test system: DLD-1
DMS-114 = test system: DMS-114
DMS-273 = test system: DMS-273
HOP-18 = test system: HOP-18
KM-20L2 = test system: KM-20L2
LXFL 529 = test system: LXFL 529
M19-MEL = test system: M19-MEL
XF498 = test system: XF498
RXF 631 = test system: RXF 631

SMILES	GI50 (DLD-1)	GI50 (DMS-114)	GI50 (DMS-273)	GI50 (HOP-18)	GI50 (KM-20L2)	GI50 (LXFL 529)	GI50 (M19-MEL)	GI50 (XF498)	GI50 (RXF 631)
Oc1ncnc2c1nnn2CCCn1nnc2c(O)ncnc21	> 100 µM (inactive)	> 100 µM (inactive)	> 100 µM (inactive)	> 100 µM (inactive)	> 100 µM (inactive)	> 100 µM (inactive)	> 100 µM (inactive)	> 100 µM (inactive)	
CCCCSC(=CC(=O)c1cccc(C(=O)C=C(SCCCC)SCCCC)n1)SCCCC	> 100 µM (inactive)	> 100 µM (inactive)	> 100 µM (inactive)	> 100 µM (inactive)	> 100 µM (inactive)	> 100 µM (inactive)	> 100 µM (inactive)	> 100 µM (inactive)	
CN(/N=C\c1ccnc2ccccc12)c1ccc([N+](=O)[O-])cc1			42.5 µM (inactive)		> 100 µM (inactive)	54.8 µM (inactive)	65.3 µM (inactive)	> 100 µM (inactive)	> 100 µM (inactive)
CN(O)C(=S)c1ccccc1	0.619 µM (active)	1.18 µM (inactive)	0.893 µM (active)	> 100 µM (inactive)	3.24 µM (inactive)	0.379 µM (active)	1.19 µM (inactive)		1.48 µM (inactive)
O=C(CC1(O)C(=O)Nc2ccccc21)c1ccc(O)cc1 (stereo unspecified)	> 100 µM (inactive)	> 100 µM (inactive)	> 100 µM (inactive)	> 100 µM (inactive)	> 100 µM (inactive)	> 100 µM (inactive)	70.1 µM (inactive)		> 100 µM (inactive)
O=C(CC(=O)N1N=C(c2ccccc2)C(/N=N/c2ccc(C(=O)O)cc2)C1=O)Nc1ccc(F)cc1 (stereo unspecified)	20.9 µM (inactive)	34.5 µM (inactive)	27.2 µM (inactive)		46.5 µM (inactive)	23.5 µM (inactive)	74 µM (inactive)	20.4 µM (inactive)	36.4 µM (inactive)
Cc1cc(-c2ccccc2)nc(Nc2cc3ccccc3[nH]2)n1	> 100 µM (inactive)	> 100 µM (inactive)			> 100 µM (inactive)	> 100 µM (inactive)	> 100 µM (inactive)	> 100 µM (inactive)	
CN1c2ccccc2NC(CC(=O)O)C2CC=CN21 (stereo unspecified)		> 100 µM (inactive)	> 100 µM (inactive)	0.117 µM (active)	> 100 µM (inactive)	> 100 µM (inactive)	> 100 µM (inactive)	> 100 µM (inactive)	> 100 µM (inactive)
Cc1cccc(/C=N/N=C(\N)NO)n1	18.7 µM (inactive)	12.1 µM (inactive)	35.7 µM (inactive)			6.52 µM (inactive)	68.7 µM (inactive)	39.4 µM (inactive)	> 100 µM (inactive)
COc1cccc(NC(=O)CC(=O)NNCC(=O)Nc2nnc(-c3ccc(N(CCC#N)S(=O)(=O)c4ccccc4)cc3)s2)c1	45.1 µM (inactive)	41.6 µM (inactive)	72.1 µM (inactive)	> 100 µM (inactive)	> 100 µM (inactive)	66.4 µM (inactive)	44.1 µM (inactive)	73.8 µM (inactive)	> 100 µM (inactive)
O=C(O/N=C1/CCC/C1=C\c1ccccc1)c1ccc(Cl)cc1	23.9 µM (inactive)		> 76.9 µM (inactive)	> 100 µM (inactive)	> 100 µM (inactive)	47.4 µM (inactive)	> 100 µM (inactive)	61.5 µM (inactive)	
COc1cc2c3cc1Oc1c(OC)c(OC)cc4c1C(Cc1ccc(cc1)Oc1cc(ccc1O)CC3N(C)CC2)N(C)CC4 (stereo unspecified)	11.4 µM (inactive)	11.9 µM (inactive)		> 100 µM (inactive)	10.4 µM (inactive)	13.6 µM (inactive)	11.9 µM (inactive)		
COc1cccc2c1C1(O)C2CCCC12OCCCO2 (stereo unspecified)	> 100 µM (inactive)	> 100 µM (inactive)	> 100 µM (inactive)	> 100 µM (inactive)	> 100 µM (inactive)	> 100 µM (inactive)	> 100 µM (inactive)		
Cc1c2cnccc2c(C)c2c1c1ccccc1n2CCCCCCCl	> 50 µM (inactive)	> 40.3 µM (inactive)	> 39.8 µM (inactive)	> 7.93 µM (inactive)	25.1 µM (inactive)		40 µM (inactive)	33 µM (inactive)	
COC(=O)c1c(C(=O)OC)c(-c2ccccc2)n(-c2ccccc2)c(=O)c1-c1ccccc1	66.5 µM (inactive)	74.1 µM (inactive)	87.7 µM (inactive)		> 100 µM (inactive)	> 100 µM (inactive)	92.3 µM (inactive)	23.1 µM (inactive)	
O=[N+]([O-])C=C1c2ccccc2-c2ccccc21	2.84 µM (inactive)				19.1 µM (inactive)	14.9 µM (inactive)			
COc1ccc(C(O)C(c2ccc(OCc3ccccc3)cc2)c2ccc(OCc3ccccc3)cc2)cc1 (stereo unspecified)	> 100 µM (inactive)	> 100 µM (inactive)	> 100 µM (inactive)		> 100 µM (inactive)	> 100 µM (inactive)	> 100 µM (inactive)	> 100 µM (inactive)	
O=c1nc(-c2ccccc2)c2c3c(cccn13)CCC2	> 100 µM (inactive)	> 100 µM (inactive)	> 100 µM (inactive)			> 100 µM (inactive)	> 100 µM (inactive)	> 100 µM (inactive)	
O=C1c2ccccc2C(=O)c2c1ccc1c3ccccc3n(-c3ccccc3)c21	17.1 µM (inactive)		18.6 µM (inactive)	14.5 µM (inactive)	21.5 µM (inactive)	16.8 µM (inactive)	18.8 µM (inactive)		7.94 µM (inactive)
CCNc1nnc(-c2nsc3ccccc23)s1			27.7 µM (inactive)	11.5 µM (inactive)	55.3 µM (inactive)	94.2 µM (inactive)	> 100 µM (inactive)		
O=C(CCCCCCCCCCc1ccccc1)C1=C(O)CCCC1=O	41.1 µM (inactive)	18.6 µM (inactive)	20.5 µM (inactive)	38.6 µM (inactive)	32.4 µM (inactive)	32.2 µM (inactive)	32.7 µM (inactive)	42.5 µM (inactive)	
Nc1ccccc1/C(O)=C1/CCOC1=O	> 100 µM (inactive)	> 100 µM (inactive)				> 100 µM (inactive)	> 100 µM (inactive)	> 100 µM (inactive)	
COc1cc(C(C)O)c[n+](Cc2ccccc2)c1 (stereo unspecified)	> 100 µM (inactive)	> 100 µM (inactive)	> 100 µM (inactive)	> 100 µM (inactive)	> 100 µM (inactive)	> 100 µM (inactive)	> 100 µM (inactive)	> 31.6 µM (inactive)	> 100 µM (inactive)
CN1CC2(CCCCC2)C(O)C12C=CCCC2 (stereo unspecified)	> 100 µM (inactive)	> 100 µM (inactive)	> 100 µM (inactive)		> 100 µM (inactive)	> 100 µM (inactive)	> 100 µM (inactive)	> 100 µM (inactive)	
CCOC(=O)C(C)N1C(=O)c2ccccc2S1(=O)=O (stereo unspecified)	> 100 µM (inactive)	> 100 µM (inactive)	> 100 µM (inactive)	> 100 µM (inactive)			> 100 µM (inactive)	> 100 µM (inactive)	
[N-]=[N+]=Nc1ccccc1-[n+]1noc([O-])c1Br	> 100 µM (inactive)	> 100 µM (inactive)		> 100 µM (inactive)	> 100 µM (inactive)	> 100 µM (inactive)	> 100 µM (inactive)		
Cc1nc(-n2nc(-c3ccccc3)cc2-c2ccccc2)sc1C(/C=C/c1ccc([N+](=O)[O-])cc1)=N/NC(N)=S	43 µM (inactive)	16.9 µM (inactive)			40.5 µM (inactive)	24.1 µM (inactive)	42 µM (inactive)		
C/C=C1/CCC2c3[nH]c4ccccc4c3CCN2C1 (stereo unspecified)	> 100 µM (inactive)	93.8 µM (inactive)	> 100 µM (inactive)		97.1 µM (inactive)	> 100 µM (inactive)	86.3 µM (inactive)	55.6 µM (inactive)	
